Test results reported in PubChem BioAssay AID179 (DTP/NCI, 2004).
Active and inactive are the calls of the source.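 How the source made its calls: active means compounds giving half or more protection of infected cells from virus-caused growth loss, again on retest; inactive means the rest.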 Where a SMILES comes first, the peptide text is derived from it. [ ]: non-standard residue; d: D form. The star is where a group is joined. ξ: configuration not given here. X13 = COc1ccc(C(N*)c2ccc(OC)cc2)cc1; NMeF = CN[C@@H](Cc1ccccc1)C(=O)O; NMeD = CN[C@@H](CC(=O)O)C(=O)O; NMeV = CN[C@H](C(=O)O)C(C)C; ξNMeV = CNC(C(=O)O)C(C)C; Boc = CC(C)(C)OC(=O)*; ξNMeA = CNC(C)C(=O)O; ξV = CC(C)C(N)C(=O)O

Tested on: CEM cells HIV-1 protection, formazan growth assay
Assay: NCI AIDS Antiviral Assay
Conditions: for IC50: measured here: growth of uninfected CEM cells
Method in brief: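 Category rules: moderately active means at least 50% protection on retest, and confirmed active means 100% protection reproducibly. The underlying data came from a formazan growth assay in HIV-1-infected CEM cells.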

| Compound | EC50 [µM] | IC50 [µM] | outcome |
| --- | --- | --- | --- |
| CCCC(C(=O)OC)C(=O)C(C)c1nc2n(c1O)C(=N)N=N2 (stereo unspecified) | > 200 | > 200 |  |
| Cc1cc(C)c(C#N)c(SSC(Cl)(Cl)Cl)n1 | > 200 | 32.4 |  |
| Cc1ccccc1-n1c(C)nc(-c2ccccc2)cc1=O | > 26.3 | > 26.3 |  |
| C1CCN(c2nc(=[N+]3CCCCC3)ss2)CC1 |  |  | inactive |
| CN1CN(c2ccccc2)C2(CCN(CCCC(=O)c3cccs3)CC2)C1=O | > 200 | 38.9 |  |
| COc1ccc(C23C(=O)c4ccccc4N2O[C@H]2C(=O)N(c4ccccc4)C(=O)[C@H]23)cc1 (stereo partly specified) | > 31.6 | > 31.6 |  |
| COc1ccc(C(NC(=O)C[C@@H](C(=O)N(C)C(C)C(=O)O)N(C)C(=O)[C@@H]2CCCN2C(=O)[C@H](C(C)C)N(C)C(=O)C(C(C)C)N(C)C(=O)[C@H](Cc2ccccc2)N(C)C(=O)C(NC(=O)OC(C)(C)C)C(C)C)c2ccc(OC)cc2)cc1 (stereo partly specified) (Boc-[ξV][NMeF][ξNMeV][NMeV]P[NMeD](X13)[ξNMeA]-OH) | > 158 | 23.4 |  |
| CNC(=S)N/N=C/c1cccc(C)n1 | > 200 | 19.5 |  |
| c1ccc(N2CCN(c3ccccn3)CC2)nc1 | > 100 | > 100 |  |
| CC(=O)Oc1cc(/C=C(\C#N)C(=O)NCCCCCNC(=O)/C(C#N)=C/c2cc(OC(C)=O)c(OC(C)=O)c(OC(C)=O)c2)cc(OC(C)=O)c1OC(C)=O | > 200 | 27.5 |  |
| CCCNC(=O)N(CCC)S(=O)(=O)c1ccc(Cl)cc1 |  |  | inactive |
| O=C1CC(O)(c2ccccc2)C(c2ccccc2)=C1c1ccccc1 (stereo unspecified) |  |  | inactive |
| CCOC(=O)/C(C#N)=C/c1ccc(Br)cc1 | > 93.3 | > 93.3 |  |
| N#Cc1c(O)c(N=Nc2ccccc2F)c(=O)n2c1[nH]c1ccccc12 | > 200 | 18.6 |  |
| O=c1[nH]c(=O)n(C2CC(O)C(CO)O2)cc1OCCc1ccccc1 (stereo unspecified) | > 200 | > 200 |  |
| COc1cc2c(c(OC)c1OC)C(=O)C(Br)C2NC(=O)CCCCl (stereo unspecified) | > 200 | > 200 |  |
| N#CC1=C(N)Oc2cc(O)cc(O)c2C1c1ccccc1 (stereo unspecified) | > 200 | > 100 |  |
| CCN(CC)CCNC(=O)c1ccccc1Nc1c(Cl)cccc1Cl | > 200 | 27.5 |  |
| COc1ccc(/C=C/C(=O)c2nc3ccccc3[nH]2)cc1 | > 200 | 3.98 |  |
| CCCCCCCCCCCCNS(=O)(=O)c1ccc(-c2c3nc(c(-c4ccc(S(=O)(=O)NCCCCCCCCCCCC)cc4)c4ccc([nH]4)c(-c4ccc(S(=O)(=O)NCCCCCCCCCCCC)cc4)c4nc(c(-c5ccc(S(=O)(=O)NCCCCCCCCCCCC)cc5)c5ccc2[nH]5)C=C4)C=C3)cc1 | > 100 | > 100 |  |
| CCCCCCCCCCCCCCCCOC(=O)c1cc(OCCOP(=O)(O)O)cc(C(=O)OCCCCCCCCCCCCCCCC)c1 |  |  | inactive |

| Compound | EC50 [µM] | IC50 [µM] | outcome |
| --- | --- | --- | --- |
| COCN1C(=O)C2CC(/C=C/C(N)=O)=CN2C(=O)c2ccccc21 (stereo unspecified) |  |  | inactive |
| Cc1ccc(C)n1-n1c2ccccc2c2ccccc21 | > 100 | > 100 |  |
| CC(=O)OCC1OC(N2C(c3ccccc3)=CC(c3ccccc3)C(C#N)=C2S)C(OC(C)=O)C(OC(C)=O)C1OC(C)=O (stereo unspecified) | > 200 | 77.6 |  |
| Cc1c(C)c(CC(=O)N2CC2)c(C)c(C)c1CC(=O)N1CC1 | > 200 | 0.794 |  |
| COc1ccc2c(c1)OC(=O)CC2c1ccc(OC)c(OC)c1 (stereo unspecified) | > 200 | > 200 |  |
| COc1nc(OC)c2c(=O)oc(-c3ccccc3)cc2n1 |  |  | inactive |
| NC(CS)=NCc1ccccc1 | > 200 | 33.1 |  |
| CCOC(=O)c1c(C)c(=O)cnc2c(C#N)cnn12 | > 115 | > 115 |  |
| Clc1ccc(CN2COc3c(cc(Cl)c4cccnc34)C2)c(Cl)c1 | > 100 | 1.74 |  |
| Clc1cccc(Cl)c1C=NC12CC3CC(CC(C3)C1)C2 | > 200 | > 200 |  |
| COc1ccc(-c2cc(-c3ccco3)c(C#N)c(=S)n2C2OC(CO)C(O)C(O)C2O)cc1 (stereo unspecified) | 37.2 | > 200 |  |
| Cc1csc2nc(-c3ccncc3)cn12 | > 417 | 105 |  |
| O=C(OC1CN2CCC1CC2)N(c1ccccc1)c1ccccc1 (stereo unspecified) | > 200 | > 200 |  |
| CC1=NN(c2nc(N)nc(C(C)Sc3cc(Cl)c(C)cc3S(N)(=O)=O)n2)C(C)(C)C1 (stereo unspecified) | > 200 | 42.7 |  |
| N#CC1(C#N)NC(c2cccs2)C(C#N)(C#N)NC1c1cccs1 (stereo unspecified) | > 200 | 26.9 |  |
| CCc1c(O)n(Cc2nc3ccccc3[nH]2)c(=S)n(-c2ccccc2)c1=O | > 200 | > 200 |  |
| Nc1nc(Cl)nc2c1ncn2C1CC(O)C(CO)O1 (stereo unspecified) | > 631 | 3.09 |  |
| OCC1OC(n2nc(-c3ccccc3)nc2-c2cnccn2)C(O)C1O (stereo unspecified) | > 200 | > 200 |  |
| Nc1nc(Cl)cc(NCC2(CO)CC(O)C2)n1 (stereo unspecified) | > 200 | > 200 |  |
| CSc1nc2c(c(=O)n1C)N=C(c1ccc([N+](=O)[O-])cc1)CC(c1ccccc1)N2 (stereo unspecified) | > 200 | 155 |  |
